# Legend:
# Assay in all cases: viability relative to DMSO control (fraction); higher = less drug effect (more viable cells)
# Details in all cases: 48 h
# [1] = system: primary AML patient cells (S091)
# Summary of the method: (§1)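 Cells were incubated for 48 h at 37 °C and 5% CO2 in RPMI-1640 with penicillin/streptomycin, L-glutamine and human serum, at 4 × 10^4 cells per well in 384-well plates with compounds pre-plated at five concentrations, one well each. These were primary mononuclear tumour cells, fresh or cryopreserved, Ficoll-isolated from blood or bone marrow or obtained from processed lymph node. Viability values are CellTiter-Glo luminescence relative to the median of 16 inner DMSO wells.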
# [2] = system: primary AML patient cells (S002)
# Summary of the method: as §1
# [3] = system: primary T-PLL patient cells (S008)
# Summary of the method: as §1
# [4] = system: primary AML patient cells (S025)
# Summary of the method: as §1
# [5] = system: primary FL patient cells (S022)
# Summary of the method: as §1
# [6] = system: primary AML patient cells (S037)
# Summary of the method: as §1
# [7] = system: primary AML patient cells (S019)
# Summary of the method: as §1
# [8] = system: primary AML patient cells (S089)
# Summary of the method: as §1
# [9] = system: primary AML patient cells (S021)
# Summary of the method: as §1
# [10] = system: primary ALL patient cells (S048)
# Summary of the method: as §1
# [11] = system: primary MCL patient cells (S068)
# Summary of the method: as §1
# [12] = system: primary AML patient cells (S011)
# Summary of the method: as §1
# [13] = system: primary AML patient cells (S081)
# Summary of the method: as §1
# [14] = system: primary AML patient cells (S055)
# Summary of the method: as §1
smiles,measurement,setting,value
CCc1nc(C(N)=O)c(Nc2ccc(N3CCC(N4CCN(C)CC4)CC3)c(OC)c2)nc1NC1CCOCC1 [Gilteritinib],viability,[1]; 0.024 µM,0.859
same,viability,[1]; 0.12 µM,0.734
same,viability,[1]; 0.6 µM,0.238
same,viability,[1]; 3 µM,0.122
same,viability,[1]; 15 µM,0.0937
same,viability,[2]; 0.024 µM,1.13
same,viability,[2]; 0.12 µM,1.01
same,viability,[2]; 0.6 µM,0.766
same,viability,[2]; 3 µM,0.592
same,viability,[2]; 15 µM,0.456
same,viability,[3]; 0.024 µM,0.952
same,viability,[3]; 0.12 µM,0.909
same,viability,[3]; 0.6 µM,0.886
same,viability,[3]; 3 µM,0.787
same,viability,[3]; 15 µM,0.935
same,viability,[4]; 0.024 µM,0.888
same,viability,[4]; 0.12 µM,0.862
same,viability,[4]; 0.6 µM,0.751
same,viability,[4]; 3 µM,0.791
same,viability,[4]; 15 µM,0.485
same,viability,[5]; 0.024 µM,1.01
same,viability,[5]; 0.12 µM,0.925
same,viability,[5]; 0.6 µM,0.907
same,viability,[5]; 3 µM,0.789
same,viability,[5]; 15 µM,0.358
same,viability,[6]; 0.024 µM,1.06
same,viability,[6]; 0.12 µM,1.02
same,viability,[6]; 0.6 µM,0.875
same,viability,[6]; 3 µM,0.9
same,viability,[6]; 15 µM,0.738
same,viability,[7]; 0.024 µM,1.12
same,viability,[7]; 0.12 µM,1.04
same,viability,[7]; 0.6 µM,0.76
same,viability,[7]; 3 µM,0.818
same,viability,[7]; 15 µM,0.771
same,viability,[8]; 0.024 µM,0.956
same,viability,[8]; 0.12 µM,0.552
same,viability,[8]; 0.6 µM,0.512
same,viability,[8]; 3 µM,0.379
same,viability,[8]; 15 µM,0.311
same,viability,[9]; 0.024 µM,1.04
same,viability,[9]; 0.12 µM,1.07
same,viability,[9]; 0.6 µM,0.72
same,viability,[9]; 3 µM,0.754
same,viability,[9]; 15 µM,0.736
same,viability,[10]; 0.024 µM,0.876
same,viability,[10]; 0.12 µM,0.819
same,viability,[10]; 0.6 µM,0.646
same,viability,[10]; 3 µM,0.717
same,viability,[10]; 15 µM,0.531
same,viability,[11]; 0.024 µM,1.63
same,viability,[11]; 0.12 µM,2
same,viability,[11]; 0.6 µM,1.89
same,viability,[11]; 3 µM,1.27
same,viability,[11]; 15 µM,0.689
same,viability,[12]; 0.024 µM,0.834
same,viability,[12]; 0.12 µM,0.755
same,viability,[12]; 0.6 µM,0.617
same,viability,[12]; 3 µM,0.841
same,viability,[12]; 15 µM,0.796
same,viability,[13]; 0.024 µM,0.968
same,viability,[13]; 0.12 µM,0.969
same,viability,[13]; 0.6 µM,0.947
same,viability,[13]; 3 µM,0.708
same,viability,[13]; 15 µM,0.599
same,viability,[14]; 0.024 µM,1.04
same,viability,[14]; 0.12 µM,1.03
same,viability,[14]; 0.6 µM,0.573
same,viability,[14]; 3 µM,0.638
same,viability,[14]; 15 µM,0.821

# Source: the supplement of paper PMC10733146
